Results published in US20210196779A1, “Compositions and Methods for Treating Steroid Hormone-Related Diseases or Disorders” (YALE UNIVERSITY, priority 2018, published 2021).
Read-outs that look alike come from different tables or passages of the source.

Columns and labels:
Assay type in all cases: cell-based
estrogen receptor ERb = test: Western blot, MCF7 cells, ERb; conditions: presence or absence of E2, 24 h
Experimental: (§1) Western blot analysis was used to determine the protein expression using protein specific antibodies.
(§2) Total cell lysis was conducted using 2×SDS sample buffer (62.5 mM Tris-HCl, 2% SDS, 10% glycerol, 50 mM DTT, and 0.05% bromophenol blue). The samples were sonicated for 10 s to shear DNA. Cell nuclei were isolated using Tris buffer saline with 0.4% NP40. Cell extracts were then electrophoresed through 10% SDS-polyacrylamide gels and transferred to 0.2 μm nitrocellulose membranes (Bio-Rad Laboratories, Hercules, Calif.) with a Miniprotein II transferring apparatus (Bio-Rad). The membranes were blocked and probed in TBS-T buffer (1×TBS buffer, 0.2% Tween 20) containing 5% non-fat milk. Monoclonal rabbit anti-AR (1:5000), was used to detect androgen receptor (Abcam #133273), Glucocorticoid Receptor (D8H2) XP® Rabbit mAb #3660, ERa Antibody (F-10): sc-8002, BRD4 (E2A7X) Rabbit mAb #13440, Brd2 (D89B4) Rabbit mAb #5848, PARP (46D11) Rabbit mAb #9532, Acetyl-Histone H3 (Lys27) (D5E4) XP® Rabbit mAb #8173 and a monoclonal actin antibody diluted 1:2500 (Sigma, St. Louis, Mo.) was used to detect β-actin as the internal control to confirm equal protein loading. […] Enhanced chemiluminescence reagents (Perkin-Elmer Life Science Products, Boston, Mass.) were used to visualize the immunoreactive bands and the densities of protein bands were scanned analyzed using ImageJ software from the NIH.

[1] = system: progesterone receptor PR (a and b); test: Western blot, MCF7 cells, PR; conditions: presence or absence of E2, 24 h
Experimental: as §1, §2

cyclin D1 (cycD1) [2] = test: Western blot, MCF7 cells, cyclin D1; conditions: presence or absence of E2, 24 h
Experimental: as §1, §2

AR [3] = molecular target: T1, AR (Homo sapiens, UniProt P10275); test: Western blot, MCF7 cells, AR; conditions: presence or absence of E2, 24 h
T1 construct: endogenous in cells; host or cells: MCF7
Experimental: as §1, §2

androgen receptor (AR) = test: PSA-luciferase reporter assay, DHT induced, 22RV1 cells; conditions: equivalent doses, 22RV1 cells in the presence of DHT
Experimental: 22RV1 or LNCaP prostate cancer cells were used in the screening study. 22RV1 or LNCaP cell lines were stably transfected with PSA promoter-PGL4.2 luciferase reporter. DHT (25 nM) was used to stimulate androgen receptor activity for 24 h.
Reporter cells were treated with herbal extracts at 30, 100, 300, and 1000 μg/ml for 24 h in a 37° C.-CO2 incubator. DHT (25 nM) was used to stimulate androgen receptor activity. Dexamethasone (50 nM) was used to stimulate glucocorticoid receptor activity Cells were lysed using luciferase lysis buffer after which luciferase buffer with luciferin was added to generate luminescence. Luminescence was recorded using a luminescence microplate reader.

PC3 cells = test: Cell growth assay, PC3 cells; conditions: for IC50: Homo sapiens, PC-3, 96 h, 4 days, standardized to equivalent concentration of Y1830, read-out: IC50 for the inhibition of growth
Experimental: (§3) 20,000 cells in 1 ml of medium (phenol red free RPMI1640, 5% charcoal-dialysis FBS, 50 μg/ml Kanamyacin) were seeded per well of a 24-well plate and incubated in a 37° C. incubator with 5% CO2 overnight. Different concentrations of herbal extract were added to each well in order to have final concentrations from 50 μg/ml to 500 μg/ml. […] For glucocorticoid receptor overexpressed LNCaP cells, dexamethasone (50 nM) was used to stimulate glucocorticoid receptor activity. For all breast cancer cells, E2 (10 nM) was used to stimulate ER activity. Control medium without any steroid hormone was used as a control setting. After 4 days of incubation, cells were fixed and stained for 2 h with 0.5% methylene blue in 50% ethanol, followed by washing with tap water to remove unbound dye. Plates were air dried and then cells were dissolved in 1% sarkosyl (sodium lauroyl sarcosinate) by shaking at room temperature for 3 h. […] All experiments were performed in triplicate wells and were repeated at least three times.

LNCaP cells = test: Cell growth assay, LNCaP prostate cancer cells; conditions: for IC50: Homo sapiens, LNCaP, 96 h, 4 days, standardized to equivalent concentration of Y1830, read-out: IC50 for the inhibition of growth
Experimental: (§4) 22RV1 or LNCaP prostate cancer cells were grown in corning T75 cell culture flasks in RPMI1640 medium supplemented with 5% FBS, 50 μg/ml Kanamycin in a 37° C., 5% CO2 incubator.
as §3

GR [4] = test: Western blot, MCF7 cells, GR; conditions: 24 h
Experimental: as §1, §2

AR-V (truncated AR) = test: Western blot, 22RV1 cells, AR-V; conditions: presence or absence of DHT, 24 h
Experimental: as §1, §2

estrogen receptor ERa = molecular target: T2, estrogen receptor ERa (Homo sapiens, UniProt P03372); test: Western blot, MCF7 cells, ERa; conditions: presence or absence of E2, 24 h
T2 construct: endogenous in cells; host or cells: MCF7
Experimental: as §1, §2

[5] = system: LNCaP-GR (GR overexpressing) cells; test: Cell growth assay, GR overexpressing LNCaP cells; conditions: for IC50: Homo sapiens, LNCaP, 96 h, 4 days, standardized to equivalent concentration of Y1830, read-out: IC50 for the inhibition of growth
Experimental: as §3

beta-catenin (b-cat) [6] = test: Western blot, 22RV1 cells, beta-catenin; conditions: presence or absence of DHT, 24 h
Experimental: as §1, §2

beta-catenin (b-cat) [7] = test: Western blot, MCF7 cells, beta-catenin; conditions: presence or absence of E2, 24 h
Experimental: as §1, §2

22Rv1 cells = test: Cell growth assay, 22Rv1 prostate cancer cells; conditions: Homo sapiens, 22Rv1, 96 h, 4 days, standardized to equivalent concentration of Y1830, read-out: IC50 for the inhibition of growth
Experimental: as §4, §3

GR [8] = test: Western blot, 22RV1 cells, GR; conditions: presence or absence of DHT, 24 h
Experimental: as §1, §2

cyclin D1 (cycD1) [9] = test: Western blot, 22RV1 cells, cyclin D1; conditions: presence or absence of DHT, 24 h
Experimental: as §1, §2

AR [10] = test: Western blot, 22RV1 cells, AR; conditions: presence or absence of DHT, 24 h
Experimental: as §1, §2

T1 sequence (P10275 whole entry): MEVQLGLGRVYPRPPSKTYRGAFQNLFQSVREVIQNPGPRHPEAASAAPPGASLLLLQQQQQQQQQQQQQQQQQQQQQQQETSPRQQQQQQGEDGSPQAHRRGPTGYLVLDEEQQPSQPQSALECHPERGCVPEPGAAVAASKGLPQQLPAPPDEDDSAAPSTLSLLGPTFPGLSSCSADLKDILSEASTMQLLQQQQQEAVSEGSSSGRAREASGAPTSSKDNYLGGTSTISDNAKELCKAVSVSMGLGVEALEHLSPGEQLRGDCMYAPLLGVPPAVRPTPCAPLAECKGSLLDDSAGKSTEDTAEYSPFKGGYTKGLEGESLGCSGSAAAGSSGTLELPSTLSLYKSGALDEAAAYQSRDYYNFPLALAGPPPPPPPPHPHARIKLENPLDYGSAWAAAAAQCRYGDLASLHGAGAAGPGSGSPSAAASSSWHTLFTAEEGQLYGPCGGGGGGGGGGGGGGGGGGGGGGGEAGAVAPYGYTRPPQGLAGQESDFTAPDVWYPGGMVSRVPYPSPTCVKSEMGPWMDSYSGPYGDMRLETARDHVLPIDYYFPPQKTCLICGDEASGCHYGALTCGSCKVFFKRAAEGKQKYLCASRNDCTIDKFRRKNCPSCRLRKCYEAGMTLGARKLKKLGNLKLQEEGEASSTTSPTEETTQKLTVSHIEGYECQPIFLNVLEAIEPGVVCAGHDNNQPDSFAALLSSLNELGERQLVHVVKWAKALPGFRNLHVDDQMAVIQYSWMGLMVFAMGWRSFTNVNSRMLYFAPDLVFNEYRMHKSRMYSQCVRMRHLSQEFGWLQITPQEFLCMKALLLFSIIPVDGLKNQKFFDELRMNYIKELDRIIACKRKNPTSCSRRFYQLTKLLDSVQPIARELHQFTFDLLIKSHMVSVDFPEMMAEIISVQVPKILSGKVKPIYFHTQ
T2 sequence (P03372 whole entry): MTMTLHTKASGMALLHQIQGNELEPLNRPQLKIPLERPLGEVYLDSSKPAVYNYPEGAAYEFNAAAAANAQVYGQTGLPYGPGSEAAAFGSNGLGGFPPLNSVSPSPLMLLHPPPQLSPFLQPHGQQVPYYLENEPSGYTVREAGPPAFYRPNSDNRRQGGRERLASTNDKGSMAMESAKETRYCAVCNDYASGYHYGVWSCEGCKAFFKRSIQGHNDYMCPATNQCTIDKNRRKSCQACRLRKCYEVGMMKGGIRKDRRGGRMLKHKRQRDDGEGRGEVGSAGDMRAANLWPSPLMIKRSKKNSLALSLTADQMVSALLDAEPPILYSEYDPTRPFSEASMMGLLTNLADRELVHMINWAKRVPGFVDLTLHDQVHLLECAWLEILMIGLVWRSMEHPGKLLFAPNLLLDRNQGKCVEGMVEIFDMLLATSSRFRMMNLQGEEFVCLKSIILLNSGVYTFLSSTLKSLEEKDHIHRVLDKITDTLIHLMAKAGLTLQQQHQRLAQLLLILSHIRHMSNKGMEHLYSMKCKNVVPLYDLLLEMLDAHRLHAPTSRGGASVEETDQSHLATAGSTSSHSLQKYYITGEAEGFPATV

AR protein expression (AR [3])	IC50 (PC3 cells; PC3, no DEX)	IC50 (PC3 cells; PC3 w/DEX 50 nM)	IC50 (LNCaP cells; LNCaP w/DHT 2 nM)	IC50 (LNCaP cells; no DHT)	ERa protein expression (estrogen receptor ERa)	IC50 ([5]; LNCaP-GR w/DEX 50 nM)	IC50 ([5]; LNCaP-GR w/DHT 2 nM)	IC50 ([5]; LNCaP-GR, no DHT/DEX)	IC50 (22Rv1 cells; 22Rv1, no DHT/DEX)	IC50 (22Rv1 cells; 22Rv1 w/DEX 50 nM)	IC50 (22Rv1 cells; 22Rv1 w/DHT 25 nM)	SMILES	ERb protein expression (estrogen receptor ERb)	PR (a and b) protein expression [1]	cyclin D1 protein expression (cyclin D1 (cycD1) [2])	inhibitory effect on AR mediated transcriptional response (androgen receptor (AR))	GR protein expression (GR [4])	AR-V protein expression (AR-V (truncated AR))	beta-catenin protein expression (beta-catenin (b-cat) [6])	beta-catenin protein expression (beta-catenin (b-cat) [7])	also measured
downregulate	146 µg/mL	320 µg/mL	50 µg/mL	> 500 µg/mL	downregulate	60 µg/mL	40 µg/mL	220 µg/mL	306 µg/mL	220 µg/mL	253 µg/mL	CC(=O)OCC1OC(Oc2cc3c(c(O)c2C)C(=O)c2ccc(O)cc2C3=O)C(OC2OC(C)C(O)C(O)C2O)C(O)C1O [RGA, 1,3,6-Trihydroxy-2-methyl-9,10-anthracenedione 3-O-[α-L-Rhamnopyranosyl-(1→2)-6-O-acetyl-β-D-glucopyranoside]]	slightly downregulate	downregulate	strong inhibitory effects	very similar anti-AR activity as the Y1830 water extract	did not inhibited	downregulate	moderate inhibitory effect	moderate inhibitory effect	inhibition of PC3 cell growth (in words) (PC3 cells; with or without DEX): inhibited PC3 cell growth, but less effectively in the presence of DEX; susceptibility of LNCaP cell growth to treatment (in words) (LNCaP cells; in the absence of DHT): not be susceptible; sensitivity of LNCaP cell growth to treatment (in words) (LNCaP cells; in the presence of DHT): more sensitive; inhibition of LNCaP-GR cell growth (in words) ([5]; in the presence of either DHT or DEX): effectively inhibited; GR protein expression (GR [8]): but not GR; cyclin D1 protein expression (cyclin D1 (cycD1) [9]): strong inhibitory effect; AR protein expression (AR [10]): downregulate
did not have any impact	> 500 µg/mL	> 500 µg/mL	> 500 µg/mL	> 500 µg/mL	did not have any impact	> 500 µg/mL	> 500 µg/mL	> 500 µg/mL	> 500 µg/mL	> 500 µg/mL	> 500 µg/mL	Cc1c(OC2OC(CO)C(O)C(O)C2OC2OC(C)C(O)C(O)C2O)cc2c(c1O)C(=O)c1ccc(O)cc1C2=O [RG, 1,3,6-Trihydroxy-2-methyl-9,10-anthracenedione 3-O-[α-L-Rhamnopyranosyl-(1→2)-β-D-glucopyranoside]]	did not have any impact	did not have any impact	did not have any impact	very weak activity	did not have any impact	did not have impact	did not have impact	did not have any impact	GR protein expression (GR [8]): did not have impact; cyclin D1 protein expression (cyclin D1 (cycD1) [9]): did not have impact; AR protein expression (AR [10]): did not have impact
